Where two headings read alike, the source gives them in different places. Each block holds one compound with its values, some of them ahead of it.
Assays:
MAGL enzyme = biological target: T1, MAGL enzyme (Homo sapiens, UniProt Q99685); experiment: MAGL reversible inhibition assay (return of activity after washout); type: biochemical; conditions: for A: degree to which MAGL enzymatic activity returned following washout: pre-washout compound concentration 1 μM, relative to control without inhibitor
T1 sequence (Q99685 1-303): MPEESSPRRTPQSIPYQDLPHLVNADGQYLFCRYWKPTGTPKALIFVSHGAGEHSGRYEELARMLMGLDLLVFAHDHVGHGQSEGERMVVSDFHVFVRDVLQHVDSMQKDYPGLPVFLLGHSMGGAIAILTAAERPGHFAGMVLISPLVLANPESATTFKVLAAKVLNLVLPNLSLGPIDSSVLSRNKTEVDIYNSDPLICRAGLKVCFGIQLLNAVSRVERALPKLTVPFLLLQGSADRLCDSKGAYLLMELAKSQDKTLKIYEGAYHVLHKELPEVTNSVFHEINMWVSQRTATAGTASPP
Protocol: Example 24: Measuring Reversible MAUL Inhibition (IC50)
The reversible mechanism of MAGL inhibition of a test compound of Formula (I) can be determined. Flag-tagged MAGL enzyme will be immobilized on anti-Flag beads. […] Colorimetric substrate (4-NPA) will be added and the reaction monitored on a plate reader for 30 minutes to verify complete inhibition. Immobilized enzyme will then be washed thoroughly to remove the inhibitor, and fresh substrate will be added. The reaction will be monitored for an additional 30 minutes; returning enzymatic activity will indicate reversibility of inhibition.
Determining MAGL Reversible Inhibition:
MAGL enzyme was incubated for 30 minutes in the presence of 40× the IC50 concentration of inhibitor. […] Substrate was added and the reaction was monitored for 30 minutes.

[1] = Pharmacokinetic study of compounds in mice (brain exposure); type: in vivo, male C57BL/6 mice; conditions: male, C57BL/6, mouse, oral, 5 mg/kg, Protocols B-E
Protocol: Example 25: Pharmacokinetic Study of Compounds in Mice
Healthy male C57BL/6 mice (8-12 weeks old) weighing between 17 to 35 g were procured from Global, India. Temperature and humidity were maintained at 22±3° C. and 30-70%, respectively and illumination was controlled to give a sequence of 12 hr light and 12 hr dark cycle. Temperature and humidity were recorded by auto-controlled data logger system. All the animals were provided laboratory rodent diet. Reverse osmosis water treated with ultraviolet light was provided ad libitum.
Protocol A: Twenty-four male mice were divided into two groups as; Group 1: 30 mg/kg/IP; Plasma and brain; Number of animals=12; Animal #1-12. Group 2: 30 mg/kg/PO; Plasma and brain; Number of animals=12; Animal #13-24. Animals in Group 1 were administered intraperitoneally with solution formulation of PSY-05-00074-001 in 5% NMP, 5% Solutol HS-15 and 90% normal saline at […] dose. Animals in Group 2 were administered orally with solution formulation of PSY-05-00074-001 in 5% NMP, 5% Solutol HS-15 and 90% normal saline at 30 mg/kg dose. Blood samples (approximately 60 μL) were collected under light isoflurane anesthesia from retro orbital plexus at 0.25, 0.5, 1, 2, 4 and 8 hr (IP and PO). Plasma samples were separated by centrifugation of whole blood and stored below −70° C. until bioanalysis. Immediately after collection of blood from intraperitoneal and oral group animals, animals were euthanized with excess CO2 and brain samples were collected from set of two mice at each time point. Brain samples were divided into two parts. Half brain samples were homogenized using ice-cold phosphate buffer saline (pH-7.4) and homogenates were stored below −70±10° C. until analysis. Total homogenate volume was three times the brain weight. Other part of brain was stored below −70±10° C. for further analysis. All samples were processed for analysis by protein precipitation using acetonitrile and analyzed with fit-for-purpose LC/MS/MS method (LLOQ-2.02 ng/mL for plasma and 6.06 ng/g for brain). Pharmacokinetic parameters were calculated using the non-compartmental analysis tool of Phoenix WinNonlin®.
Protocol B: Thirty six mice were included into the study and divided in to three groups as Group 1 (n=12), Group 2 (n=12) and Group 3 (n=12) with n=2 mice per time-point design. Animals in Group 1 were administered intravenously with solution formulation of PSY-05-00414-001 at 5 mg/kg dose. Animals in Group 2 were administered orally with solution formulation of PSY-05-00414-001 at a dose of 5 mg/kg. Animals in Group 3 were administered intraperitoneally with solution formulation of PSY-05-00414-001 at 5 mg/kg dose. The formulation vehicle for all the three groups was 5% NMP, 5% Solutol HS-15 and 90% normal saline. Blood samples (approximately 60 μL) were collected under light isoflurane anesthesia from two mice at 0.25, 0.5, 1, 2, 4 and 8 h. Plasma was harvested by centrifugation of blood and stored at −70±10° C. until analysis. After blood collection, brain was perfused and isolated at 0.25, 0.5, 1, 2, 4 and 8 h. Brain samples were dipped thrice in ice-cold phosphate buffer saline, blotted dry and cut in to two equal portion. Half-brain samples from each time-point were weighed and homogenized using ice-cold phosphate buffer saline with twice volume of brain weight making the total homogenate three volumes and stored below −70±10′° C. until analysis. Remaining half-portions of brain samples was snap freeze and kept in −70±10° C. until further confirmation from client. Plasma and brain samples were quantified by fit-for-purpose LC-MS/MS method (LLOQ: 1.01 ng/mL for plasma and 2.02 ng/mL for brain).
Protocol C: Fifty four male mice were included in study and divided in to three groups as Group 1 (n=18), Group 2 (n=18) and Group 3 (n=18) with 3 mice/time point design. […]

human MAGL = biological target: T2, human MAGL (Homo sapiens, UniProt Q99685); experiment: MAGL inhibition potency assay with 4-nitrophenyl acetate (4NPA) substrate, absorbance 405 nm; type: biochemical; conditions: read-out: MAGL Potency (Detection Method)
T2 construct: recombinant MAGL enzyme (aa 2-303 RBC, internal preparation)
T2 sequence (Q99685 2-303): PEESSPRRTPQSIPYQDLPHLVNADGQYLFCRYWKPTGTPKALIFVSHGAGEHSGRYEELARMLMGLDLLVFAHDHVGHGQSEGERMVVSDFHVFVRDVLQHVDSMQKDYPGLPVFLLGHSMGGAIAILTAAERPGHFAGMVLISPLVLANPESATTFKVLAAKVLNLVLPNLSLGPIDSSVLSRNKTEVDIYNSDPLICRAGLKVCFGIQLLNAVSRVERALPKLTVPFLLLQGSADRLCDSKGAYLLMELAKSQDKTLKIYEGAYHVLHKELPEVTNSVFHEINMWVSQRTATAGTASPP

SMILES: O=C(c1cc(O)ccc1F)N1CC2(CC(n3cc(C(F)(F)F)c(-c4ccccc4F)n3)C2)C1 (single isomer, unassigned) [Compound 473, (2-fluoro-5-hydroxyphenyl)(6-(3-(2-fluorophenyl)-4-(trifluoromethyl) 1H-pyrazol-1-yl)-2-azaspiro[3.3]heptan-2-yl)methanone]
A: degree to which MAGL enzymatic activity returned following washout (MAGL enzyme): 41%
AUC(0-t) [1]: 464 ng·h/mL
Cmax [1]: 172 ng/g

A: degree to which MAGL enzymatic activity returned following washout (MAGL enzyme): 47%
SMILES: O=C(c1cc(O)ccc1F)N1CC2(CC(n3cc(C4CC4)c(-c4ccccc4F)n3)C2)C1 (single isomer, unassigned) [Compound 493, (6-(4-Cyclopropyl-3-(2-fluorophenyl)-1H-pyrazol-1-yl)-2-azaspiro [3.3]heptan-2-yl) (2-fluoro-5-hydroxyphenyl) methanone]

A: degree to which MAGL enzymatic activity returned following washout (MAGL enzyme): 155%
SMILES: Cc1cnn(C2CC3(C2)CN(C(=O)c2cc(O)ccc2F)C3)c1-c1cc(F)ccc1Cl (single isomer, unassigned) [Compound 519, (6-(5-(2-chloro-5-fluorophenyl)-4-methyl-1H-pyrazol-1-yl)-2-azaspiro [3.3]heptan-2-yl) (2-fluoro-5-hydroxyphenyl) methanone]

IC50 (human MAGL; Method 2: Cayman Chemical MAGL enzyme prep, 10 nM enzyme): < 50 nM
IC50 (human MAGL; Method 3: Reaction Biology MAGL enzyme prep, 10 nM enzyme): < 50 nM
IC50 (human MAGL; Method 5: Cayman Chemical MAGL enzyme prep, 25 nM enzyme): < 50 nM
SMILES: Cc1cc(C2CC3(C2)CN(C(=O)c2ccc(F)cc2OCC(F)(F)F)C3)n(-c2ccccc2C)n1 [Compound 178, [4-fluoro-2-(2,2,2-trifluoroethoxy)phenyl]{6-[3-methyl-1-(o-tolyl)-5-pyrazolyl]-2-aza-2-spiro[3.3]heptyl}methanone]

A: degree to which MAGL enzymatic activity returned following washout (MAGL enzyme): 100%
SMILES: Cc1cn(C2CC3(C2)CN(C(=O)c2cc(O)ccc2F)C3)nc1-c1cc(F)ccc1Cl [Compound 520, (6-(3-(2-chloro-5-fluorophenyl)-4-methyl-1H-pyrazol-1-yl)-2-azaspiro [3.3]heptan-2-yl)(2-fluoro-5-hydroxyphenyl) methanone]

SMILES: O=C(Oc1ccc([N+](=O)[O-])cc1)N1CCC(C(O)(c2ccc3c(c2)OCO3)c2ccc3c(c2)OCO3)CC1 [JZL-184, reference compound]
B: % MAGL activity returning after washout (MAGL enzyme; immediately following a 30 minute washout, relative to control (no inhibitor before washout), pre-washout 1 μM): <1%
A: degree to which MAGL enzymatic activity returned following washout (MAGL enzyme): complete lack of return of MAGL enzymatic activity

— patent US20250084065A1, “INHIBITING MONOACYLGLYCEROL LIPASE (MAGL)” (Psy Therapeutics, Inc., priority 2021, published 2025)
